Test results taken from US20160376240A1, “6 Phenyl or 6 Pyridin 3 YL Indazole Derivatives and Methods of Use” (ABBVIE INC., priority 2014, published 2016).
pIC50: −log10 of the molar value.

target: T1, TrkA (Homo sapiens, UniProt P04629); assay: TrkA kinase inhibition, HTRF assay; type: biochemical; conditions: LCK peptide substrate 125 nM, TrkA 2-10 nM pre-incubated with ATP 200 μM
T1 construct: purchased Invitrogen PV3144
Description: TrkA, TrkB, and TrkC enzymes were obtained from Invitrogen (as catalog numbers PV3144, PV3616, and PV3617, respectively). The ability of a compound to inhibit the enzymatic activity of the TrkA, TrkB, and TrkC enzymes was determined in separate assays. Enzyme activity was measured in an HTRF® (homogeneous time resolved fluorescence) assay, which detects enzymatic phosphorylation of a biotinylated synthetic peptide substrate (an LCK peptide analog, biotin-ahx-GAEEEIYAAFFA, from Genemed Synthesis). Phosphorylation is assessed by HTRF® in the presence of an anti-phosphotyrosine antibody conjugated to Eu^3+ cryptate (Cisbio) as donor fluorophore, and streptavidin conjugated to allophycocyanin (ProZyme) as acceptor fluorophore. The HTRF® signal was detected at two different wavelengths (620 nm and 665 nm) which were used to calculate the fluorescence ratio.
Each enzyme was titrated to a concentration optimized to ensure accurate measurement of the initial reaction rate. To allow the Trk enzymes to undergo activation and auto-phosphorylation, a 20 minute pre-incubation with ATP was carried out (at twice the final targeted enzyme and ATP concentration) prior to addition of test compound and the peptide substrate.
TrkA in vitro assays were performed by pre-incubating TrkA (2-10 nM) with ATP (200 μM) for 20 minutes at ambient temperature in 50 mM HEPES pH 7.4, 10 mM MgCl2, 2 mM MnCl2, 100 μM Na3VO4, 1 mM dithiothreitol, 0.01% BSA (bovine serum albumin). Then, to the activated Trk enzyme mixture was added the test compound in 2% dimethyl sulfoxide. After 10 minutes, the peptide substrate (125 nM) was added. After 1 hour, enzyme reactions were terminated by addition of equal reaction volumes of detection/stop reagent (containing 0.2 μg/mL anti-phosphotyrosine monoclonal antibody labeled with europium from Cisbio (catalog# PT66-K), and 4 μg/mL PhycoLink® Streptavidin-Allophycocyanin conjugate from ProZyme (catalog# PJ25S) in 60 mM EDTA in 40 mM HEPES pH 7.4, 480 mM KF, 0.01% Tween® 20 and 0.1% BSA bovine serum albumin) Reaction plates were stored at 4° C. overnight before reading the fluorescence ratio signal on a PerkinElmer EnVision™ fluorescence detector. Individual reaction wells were stopped at time points to obtain reaction rates. The test inhibitor compounds were assayed in duplicate, at half-log serial dilutions over a range of concentrations (e.g. starting at 50 μM or 5 μM as the high compound concentration). The percent Trk enzyme inhibition was calculated from the initial rates of the inhibited reactions relative to the uninhibited control. IC50 values were calculated by fitting the inhibition percent to the concentration of inhibitor [I] in the assay in equation 1 below, to solve for the IC50.
Inhibition %=100[I]/([I]+[IC50]) equation 1

T1 sequence (P04629 33-796): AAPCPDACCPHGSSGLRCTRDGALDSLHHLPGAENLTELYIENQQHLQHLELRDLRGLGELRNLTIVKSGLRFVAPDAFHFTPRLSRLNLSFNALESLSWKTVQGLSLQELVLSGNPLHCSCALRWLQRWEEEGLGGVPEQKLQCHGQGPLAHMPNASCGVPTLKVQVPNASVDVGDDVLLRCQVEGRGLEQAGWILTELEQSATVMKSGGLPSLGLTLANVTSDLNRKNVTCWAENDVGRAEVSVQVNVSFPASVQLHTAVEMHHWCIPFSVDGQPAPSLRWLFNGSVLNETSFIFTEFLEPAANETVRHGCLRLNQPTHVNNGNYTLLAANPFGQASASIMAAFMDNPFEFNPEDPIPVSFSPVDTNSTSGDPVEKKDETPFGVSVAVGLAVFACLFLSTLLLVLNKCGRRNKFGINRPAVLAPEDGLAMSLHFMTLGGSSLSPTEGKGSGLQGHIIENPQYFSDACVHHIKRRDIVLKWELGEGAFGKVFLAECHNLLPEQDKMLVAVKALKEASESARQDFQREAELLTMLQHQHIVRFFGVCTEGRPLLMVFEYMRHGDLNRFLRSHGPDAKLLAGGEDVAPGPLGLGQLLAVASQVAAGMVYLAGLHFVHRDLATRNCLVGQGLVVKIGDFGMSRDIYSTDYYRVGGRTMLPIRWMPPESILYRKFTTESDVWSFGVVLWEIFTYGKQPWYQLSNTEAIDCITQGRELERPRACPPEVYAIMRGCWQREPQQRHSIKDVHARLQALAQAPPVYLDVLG

Row | Molecule | pIC50
1 | CC(Oc1cc(-c2ccc(C(=O)NC3CC3)c(N3CCN(c4cccnc4)CC3)c2)cc2[nH]nc(N)c12)C(F)(F)F (stereo not shown) [Example 28, 4-{3-amino-4-[(1,1,1-trifluoropropan-2-yl)oxy]-1H-indazol-6-yl}-N-cyclopropyl-2-[4-(pyridin-3-yl)piperazin-1-yl]benzamide] | 7.39
2 | CNC(=O)c1ccc(-c2cc(O[C@H](C)C(F)(F)F)c3c(N)n[nH]c3c2)cc1N1CCC(C2CCCCC2)CC1 [Example 61, 4-(3-amino-4-{[(2R)-1,1,1-trifluoropropan-2-yl]oxy}-1H-indazol-6-yl)-2-(4-cyclohexylpiperidin-1-yl)-N-methylbenzamide] | 6.87
3 | CNC(=O)c1ccc(-c2cc(O[C@H](C)C(F)(F)F)c3c(N)n[nH]c3c2)cc1N1CCN(C2CCCC2)CC1 [Example 53, 4-(3-amino-4-{[(2R)-1,1,1-trifluoropropan-2-yl]oxy}-1H-indazol-6-yl)-2-(4-cyclopentylpiperazin-1-yl)-N-methylbenzamide] | 7.35
4 | Cc1n[nH]c2cc(-c3ccc(NS(C)(=O)=O)c(N4CCN(C(=O)OC(C)(C)C)CC4)c3)cc(OC3CCOCC3)c12 [Example 162, tert-butyl 4-{2-[(methylsulfonyl)amino]-5-[3-methyl-4-(tetrahydro-2H-pyran-4-yloxy)-1H-indazol-6-yl]phenyl}piperazine-1-carboxylate] | 7.55
5 | CNC(=O)c1ccc(-c2cc(O[C@H](C)C(F)(F)F)c3c(N)n[nH]c3c2)cc1N1CCN(CCC(C)(C)C)CC1 [Example 51, 4-(3-amino-4-{[(2R)-1,1,1-trifluoropropan-2-yl]oxy}-1H-indazol-6-yl)-2-[4-(3,3-dimethylbutyl)piperazin-1-yl]-N-methylbenzamide] | 7.12
6 | CC(=O)Nc1ccc(-c2cc(OC3CCOCC3)c3c(C)n[nH]c3c2)cc1N1CCN(C(=O)OC(C)(C)C)CC1 [Example 141, tert-butyl 4-{2-acetamido-5-[3-methyl-4-(tetrahydro-2H-pyran-4-yloxy)-1H-indazol-6-yl]phenyl}piperazine-1-carboxylate] | 8.42
7 | CNC(=O)c1ccc(-c2cc(OC3CCOCC3)c3c(C)n[nH]c3c2)cc1N1CCN(C(=O)NC(C)C)CC1 [Example 155, N-isopropyl-4-{2-(methylcarbamoyl)-5-[3-methyl-4-(tetrahydro-2H-pyran-4-yloxy)-1H-indazol-6-yl]phenyl}piperazine-1-carboxamide] | 8.64
8 | CNC(=O)c1ccc(-c2cc(O[C@@H](C)C(F)(F)F)c3c(N)n[nH]c3c2)cc1N1CCN(C(=O)C(C)(C)C)CC1 [Example 45, 4-(3-amino-4-{[(2S)-1,1,1-trifluoropropan-2-yl]oxy}-1H-indazol-6-yl)-2-[4-(2,2-dimethylpropanoyl)piperazin-1-yl]-N-methylbenzamide] | 6.52
9 | NC(=O)c1ccc(-c2cc(OC3CCCC3)c3c(N)n[nH]c3c2)cc1N1CCN(c2ccccn2)CC1 [Example 75, 4-[3-amino-4-(cyclopentyloxy)-1H-indazol-6-yl]-2-[4-(pyridin-2-yl)piperazin-1-yl]benzamide] | 8.64
10 | CC(=O)N1CCC(Oc2cc(-c3ccc(C(N)=O)c(N4CCN(c5ccccc5)CC4)c3)cc3[nH]nc(N)c23)CC1 [Example 64, 4-{4-[(1-acetylpiperidin-4-yl)oxy]-3-amino-1H-indazol-6-yl}-2-(4-phenylpiperazin-1-yl)benzamide] | 8.07
11 | CNC(=O)c1ccc(-c2cc(O[C@@H](C)C(F)(F)F)c3c(N)n[nH]c3c2)cc1N1CCN(C2CCC2)CC1 [Example 42, 4-(3-amino-4-{[(2S)-1,1,1-trifluoropropan-2-yl]oxy}-1H-indazol-6-yl)-2-(4-cyclobutylpiperazin-1-yl)-N-methylbenzamide] | 6.37
12 | NC(=O)c1ccc(-c2cc(OC3CCOCC3)c3c(N)n[nH]c3c2)cc1N1CCN(CCCO)CC1 [Example 7, 4-[3-amino-4-(tetrahydro-2H-pyran-4-yloxy)-1H-indazol-6-yl]-2-[4-(3-hydroxypropyl)piperazin-1-yl]benzamide] | 6.15
13 | CC(=O)c1ccc(-c2cc(OC3CCOCC3)c3c(N)n[nH]c3c2)cc1N1CCN(c2ncccn2)CC1 [Example 15, 1-{4-[3-amino-4-(tetrahydro-2H-pyran-4-yloxy)-1H-indazol-6-yl]-2-[4-(pyrimidin-2-yl)piperazin-1-yl]phenyl}ethanone] | 8.02
14 | CNC(=O)c1ccc(-c2cc(OC3CCOCC3)c3c(C)n[nH]c3c2)cc1N1CCN(Cc2cccc(F)c2)CC1 [Example 154, 2-[4-(3-fluorobenzyl)piperazin-1-yl]-N-methyl-4-[3-methyl-4-(tetrahydro-2H-pyran-4-yloxy)-1H-indazol-6-yl]benzamide] | 7.80
15 | CNC(=O)c1ccc(-c2cc(OC3CCOCC3)c3c(C)n[nH]c3c2)cc1N1CCN(C(=O)OC(C)C(F)(F)F)CC1 (stereo not shown) [Example 163, 1,1,1-trifluoropropan-2-yl 4-{2-(methylcarbamoyl)-5-[3-methyl-4-(tetrahydro-2H-pyran-4-yloxy)-1H-indazol-6-yl]phenyl}piperazine-1-carboxylate] | 6.77
16 | CCc1n[nH]c2cc(-c3ccc(C(=O)NC)c(N4CCN(C(=O)OC(C)(C)C)CC4)c3)cc(OC3CCOCC3)c12 [Example 158, tert-butyl 4-{5-[3-ethyl-4-(tetrahydro-2H-pyran-4-yloxy)-1H-indazol-6-yl]-2-(methylcarbamoyl)phenyl}piperazine-1-carboxylate] | 6.50
17 | CNC(=O)c1ccc(-c2cc(O[C@H](C)C(F)(F)F)c3c(N)n[nH]c3c2)cc1N1CCC(O)(c2ccccc2)CC1 [Example 60, 4-(3-amino-4-{[(2R)-1,1,1-trifluoropropan-2-yl]oxy}-1H-indazol-6-yl)-2-(4-hydroxy-4-phenylpiperidin-1-yl)-N-methylbenzamide] | 6.65
18 | CC(=O)c1ccc(-c2cc(OC3CCOCC3)c3c(N)n[nH]c3c2)cc1N1CCN(c2nccs2)CC1 [Example 21, 1-{4-[3-amino-4-(tetrahydro-2H-pyran-4-yloxy)-1H-indazol-6-yl]-2-[4-(1,3-thiazol-2-yl)piperazin-1-yl]phenyl}ethanone] | 7.48
19 | CC(Oc1cc(-c2ccc(C(=O)NC3CC3)c(N3CCN(C4CC4)CC3)c2)cc2[nH]nc(N)c12)C(F)(F)F (stereo not shown) [Example 27, 4-{3-amino-4-[(1,1,1-trifluoropropan-2-yl)oxy]-1H-indazol-6-yl}-N-cyclopropyl-2-(4-cyclopropylpiperazin-1-yl)benzamide] | 6.60
20 | CC(=O)c1ccc(-c2cc(OC3CCOCC3)c3c(N)n[nH]c3c2)cc1N1CCN(c2ccc(F)cc2)CC1 [Example 17, 1-{4-[3-amino-4-(tetrahydro-2H-pyran-4-yloxy)-1H-indazol-6-yl]-2-[4-(4-fluorophenyl)piperazin-1-yl]phenyl}ethanone] | 7.87
21 | C=CC(=O)Nc1ccc(-c2cc(OC3CCOCC3)c3c(C)n[nH]c3c2)cc1N1CCN(C2CCCCC2)CC1 [Example 131, N-{2-(4-cyclohexylpiperazin-1-yl)-4-[3-methyl-4-(tetrahydro-2H-pyran-4-yloxy)-1H-indazol-6-yl]phenyl}acrylamide] | 7.33
22 | 4-{3-amino-4-[(1,1,1-trifluoropropan-2-yl)oxy]-1H-indazol-6-yl}-2-(4-cyclopentylpiperazin-1-yl)benzamide [Example 102] | 7.72
